From the supplement of paper PMC10733146

Experiments:
Assay in all cases: viability relative to DMSO control (fraction); higher = less drug effect (more viable cells)
Settings in all cases: 48 h
[1] = test system: primary AML patient cells (S056)
Procedure, shortened: (§1)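 Using 384-well plates with compounds already plated at five concentrations, one well per concentration, 4 × 10^4 primary mononuclear tumour cells were added per well. Cells were Ficoll-isolated from blood or bone marrow or came from processed lymph node, fresh or cryopreserved. They were kept for 48 h at 37 °C and 5% CO2 in RPMI-1640 supplemented with penicillin/streptomycin, L-glutamine and human serum, and viability was read as CellTiter-Glo luminescence relative to the median of 16 inner DMSO wells.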

[2] = test system: primary AML patient cells (S085)
Procedure, shortened: as §1

[3] = test system: primary FL patient cells (S087)
Procedure, shortened: as §1

[4] = test system: primary CLL patient cells (S031)
Procedure, shortened: as §1

[5] = test system: primary T-NHL patient cells (S058)
Procedure, shortened: as §1

[6] = test system: primary AML patient cells (S019)
Procedure, shortened: as §1

[7] = test system: primary MCL patient cells (S041)
Procedure, shortened: as §1

[8] = test system: primary AML patient cells (S012)
Procedure, shortened: as §1

[9] = test system: primary AML patient cells (S006)
Procedure, shortened: as §1

[10] = test system: primary FL patient cells (S022)
Procedure, shortened: as §1

[11] = test system: primary DLBCL patient cells (S049)
Procedure, shortened: as §1

[12] = test system: primary MCL patient cells (S063)
Procedure, shortened: as §1

[13] = test system: primary ALL patient cells (S048)
Procedure, shortened: as §1

[14] = test system: primary AML patient cells (S011)
Procedure, shortened: as §1

[15] = test system: primary DLBCL patient cells (S076)
Procedure, shortened: as §1

[16] = test system: primary ALL patient cells (S088)
Procedure, shortened: as §1

[17] = test system: primary AML patient cells (S079)
Procedure, shortened: as §1

SMILES: Nc1ccn([C@@H]2O[C@H](CO)[C@@H](O)[C@@H]2O)c(=O)n1 [Cytarabine]
- viability ([1]; 0.032 µM): 1.05
- viability ([1]; 0.16 µM): 1
- viability ([1]; 0.8 µM): 0.719
- viability ([1]; 4 µM): 0.177
- viability ([1]; 20 µM): 0.0767
- viability ([2]; 0.032 µM): 1.1
- viability ([2]; 0.16 µM): 1.02
- viability ([2]; 0.8 µM): 0.925
- viability ([2]; 4 µM): 0.372
- viability ([2]; 20 µM): 0.106
- viability ([3]; 0.032 µM): 1.03
- viability ([3]; 0.16 µM): 1.02
- viability ([3]; 0.8 µM): 0.959
- viability ([3]; 4 µM): 0.747
- viability ([3]; 20 µM): 0.628
- viability ([4]; 0.032 µM): 1.15
- viability ([4]; 0.16 µM): 1.04
- viability ([4]; 0.8 µM): 0.706
- viability ([4]; 4 µM): 0.177
- viability ([4]; 20 µM): 0.0741
- viability ([5]; 0.032 µM): 0.81
- viability ([5]; 0.16 µM): 0.397
- viability ([5]; 0.8 µM): 0.237
- viability ([5]; 4 µM): 0.166
- viability ([5]; 20 µM): 0.108
- viability ([6]; 0.032 µM): 1.19
- viability ([6]; 0.16 µM): 1.15
- viability ([6]; 0.8 µM): 0.871
- viability ([6]; 4 µM): 0.387
- viability ([6]; 20 µM): 0.24
- viability ([7]; 0.032 µM): 1.08
- viability ([7]; 0.16 µM): 1
- viability ([7]; 0.8 µM): 0.732
- viability ([7]; 4 µM): 0.21
- viability ([7]; 20 µM): 0.115
- viability ([8]; 0.032 µM): 0.99
- viability ([8]; 0.16 µM): 0.927
- viability ([8]; 0.8 µM): 0.985
- viability ([8]; 4 µM): 0.935
- viability ([8]; 20 µM): 0.602
- viability ([9]; 0.032 µM): 1.09
- viability ([9]; 0.16 µM): 0.996
- viability ([9]; 0.8 µM): 0.773
- viability ([9]; 4 µM): 0.147
- viability ([9]; 20 µM): 0.0817
- viability ([10]; 0.032 µM): 1.17
- viability ([10]; 0.16 µM): 1.04
- viability ([10]; 0.8 µM): 1.09
- viability ([10]; 4 µM): 0.93
- viability ([10]; 20 µM): 0.589
- viability ([11]; 0.032 µM): 1.01
- viability ([11]; 0.16 µM): 0.886
- viability ([11]; 0.8 µM): 0.673
- viability ([11]; 4 µM): 0.264
- viability ([11]; 20 µM): 0.143
- viability ([12]; 0.032 µM): 1.11
- viability ([12]; 0.16 µM): 1.08
- viability ([12]; 0.8 µM): 0.957
- viability ([12]; 4 µM): 0.489
- viability ([12]; 20 µM): 0.238
- viability ([13]; 0.032 µM): 0.974
- viability ([13]; 0.16 µM): 0.862
- viability ([13]; 0.8 µM): 0.561
- viability ([13]; 4 µM): 0.154
- viability ([13]; 20 µM): 0.0402
- viability ([14]; 0.032 µM): 1.52
- viability ([14]; 0.16 µM): 1.04
- viability ([14]; 0.8 µM): 0.942
- viability ([14]; 4 µM): 0.681
- viability ([14]; 20 µM): 0.224
- viability ([15]; 0.032 µM): 1.01
- viability ([15]; 0.16 µM): 0.793
- viability ([15]; 0.8 µM): 0.711
- viability ([15]; 4 µM): 0.319
- viability ([15]; 20 µM): 0.118
- viability ([16]; 0.032 µM): 1.08
- viability ([16]; 0.16 µM): 0.969
- viability ([16]; 0.8 µM): 0.676
- viability ([16]; 4 µM): 0.304
- viability ([16]; 20 µM): 0.138
- viability ([17]; 0.032 µM): 1.07
- viability ([17]; 0.16 µM): 1.01
- viability ([17]; 0.8 µM): 0.781
- viability ([17]; 4 µM): 0.297
- viability ([17]; 20 µM): 0.0864

SMILES: Oc1ccc(/C=C/c2cc(O)cc(O)c2)cc1 [Resveratrol]
- viability ([1]; 0.024 µM): 0.714
- viability ([1]; 0.12 µM): 0.966
- viability ([1]; 0.6 µM): 0.645
- viability ([1]; 3 µM): 0.596
- viability ([1]; 15 µM): 0.466
- viability ([2]; 0.024 µM): 0.783
- viability ([2]; 0.12 µM): 0.735
- viability ([2]; 0.6 µM): 0.819
- viability ([2]; 3 µM): 0.735
- viability ([2]; 15 µM): 0.658
- viability ([3]; 0.024 µM): 0.804
- viability ([3]; 0.12 µM): 0.857
- viability ([3]; 0.6 µM): 0.803
- viability ([3]; 3 µM): 0.877
- viability ([3]; 15 µM): 0.815
- viability ([4]; 0.024 µM): 0.761
- viability ([4]; 0.12 µM): 0.766
- viability ([4]; 0.6 µM): 0.744
- viability ([4]; 3 µM): 0.67
- viability ([4]; 15 µM): 0.553
- viability ([5]; 0.024 µM): 0.917
- viability ([5]; 0.12 µM): 0.998
- viability ([5]; 0.6 µM): 0.957
- viability ([5]; 3 µM): 0.895
- viability ([5]; 15 µM): 0.948
- viability ([6]; 0.024 µM): 0.879
- viability ([6]; 0.12 µM): 0.928
- viability ([6]; 0.6 µM): 1
- viability ([6]; 3 µM): 0.918
- viability ([6]; 15 µM): 0.924
- viability ([7]; 0.024 µM): 0.948
- viability ([7]; 0.12 µM): 0.904
- viability ([7]; 0.6 µM): 0.904
- viability ([7]; 3 µM): 0.896
- viability ([7]; 15 µM): 0.77
- viability ([8]; 0.024 µM): 0.981
- viability ([8]; 0.12 µM): 1.02
- viability ([8]; 0.6 µM): 0.972
- viability ([8]; 3 µM): 0.957
- viability ([8]; 15 µM): 0.986
- viability ([9]; 0.024 µM): 0.862
- viability ([9]; 0.12 µM): 0.866
- viability ([9]; 0.6 µM): 0.845
- viability ([9]; 3 µM): 0.872
- viability ([9]; 15 µM): 0.804
- viability ([10]; 0.024 µM): 0.832
- viability ([10]; 0.12 µM): 0.823
- viability ([10]; 0.6 µM): 0.784
- viability ([10]; 3 µM): 0.847
- viability ([10]; 15 µM): 0.811
- viability ([11]; 0.024 µM): 0.849
- viability ([11]; 0.12 µM): 0.846
- viability ([11]; 0.6 µM): 0.826
- viability ([11]; 3 µM): 0.732
- viability ([11]; 15 µM): 0.711
- viability ([12]; 0.024 µM): 0.862
- viability ([12]; 0.12 µM): 0.858
- viability ([12]; 0.6 µM): 0.863
- viability ([12]; 3 µM): 0.854
- viability ([12]; 15 µM): 0.825
- viability ([13]; 0.024 µM): 0.621
- viability ([13]; 0.12 µM): 0.574
- viability ([13]; 0.6 µM): 0.479
- viability ([13]; 3 µM): 0.637
- viability ([13]; 15 µM): 0.681
- viability ([14]; 0.024 µM): 0.808
- viability ([14]; 0.12 µM): 0.789
- viability ([14]; 0.6 µM): 0.757
- viability ([14]; 3 µM): 0.747
- viability ([14]; 15 µM): 0.682
- viability ([15]; 0.024 µM): 0.961
- viability ([15]; 0.12 µM): 0.963
- viability ([15]; 0.6 µM): 0.955
- viability ([15]; 3 µM): 0.94
- viability ([15]; 15 µM): 0.882
- viability ([16]; 0.024 µM): 0.427
- viability ([16]; 0.12 µM): 0.459
- viability ([16]; 0.6 µM): 0.489
- viability ([16]; 3 µM): 0.477
- viability ([16]; 15 µM): 0.426
- viability ([17]; 0.024 µM): 0.838
- viability ([17]; 0.12 µM): 0.767
- viability ([17]; 0.6 µM): 0.792
- viability ([17]; 3 µM): 0.718
- viability ([17]; 15 µM): 0.736
